Holding throughout (type): in vivo
The subject of test [1] is Alopecurus myosuroides (ALOMY). The test is described as follows: Example B pre-emergence herbicidal activity, glasshouse pot test. The following applies: 312 h, rate 1000 g/ha, evaluated after 13 days, read-out: herbicidal damage ALOMY (100=total damage to plant; 0=no damage to plant). A digest of the protocol: (§1)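 Pre-emergence pot test: sow in standard soil; spray after 1 day cultivation; acetone/water (50:50), 0.5% Tween 20 vehicle; glasshouse 24/16 °C, 14 h light, 65% RH; watered 2×/day; visual score at 13 days, 0–100.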

Test [2] relates to Amaranthus retroflexus (AMARE). The description is as above. As to conditions: 312 h, rate 1000 g/ha, evaluated after 13 days, read-out: herbicidal damage AMARE (100=total damage to plant; 0=no damage to plant). A digest of the protocol:
as §1

Test [3] relates to Avena fatua (AVEFA). The description is as above. As to conditions: 312 h, rate 1000 g/ha, evaluated after 13 days, read-out: herbicidal damage AVEFA (100=total damage to plant; 0=no damage to plant). A digest of the protocol:
as §1

Test [4] deals with Echinochloa crus-galli (ECHCG). The test is described as above. The following applies: 312 h, rate 1000 g/ha, evaluated after 13 days, read-out: herbicidal damage ECHCG (100=total damage to plant; 0=no damage to plant). A digest of the protocol:
as §1

The test system of test [5] is Setaria faberi (SETFA). The description is as above. The following applies: 312 h, rate 1000 g/ha, evaluated after 13 days, read-out: herbicidal damage SETFA (100=total damage to plant; 0=no damage to plant). A digest of the protocol:
as §1

Test [6] concerns Solanum nigrum (SOLNI). The test is described as above. The following applies: 312 h, rate 1000 g/ha, evaluated after 13 days, read-out: herbicidal damage SOLNI (100=total damage to plant; 0=no damage to plant). A digest of the protocol:
as §1

Test [7] concerns Alopecurus myosuroides (ALOMY). The test is described as follows: Example B post-emergence herbicidal activity, glasshouse pot test. The following applies: 312 h, rate 1000 g/ha, evaluated after 13 days, read-out: herbicidal damage ALOMY (100=total damage to plant; 0=no damage to plant). A digest of the protocol:
(§2)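 Herbicidal effect is scored 0–100 for plant damage 13 days after spraying. Treatment uses the technical ingredient in 50:50 acetone/water with 0.5% Tween 20, applied post-emergence after 8 days of growth at 24/16 °C day/night, 14 h light, 65% humidity.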

The test system of test [8] is Amaranthus retroflexus (AMARE). The test is described as above. As to conditions: 312 h, rate 1000 g/ha, evaluated after 13 days, read-out: herbicidal damage AMARE (100=total damage to plant; 0=no damage to plant). A digest of the protocol:
as §2

Test [9] deals with Avena fatua (AVEFA). The test is described as above. The following applies: 312 h, rate 1000 g/ha, evaluated after 13 days, read-out: herbicidal damage AVEFA (100=total damage to plant; 0=no damage to plant). A digest of the protocol: as §2
The subject of test [10] is Echinochloa crus-galli (ECHCG). Described as above. As to conditions: 312 h, rate 1000 g/ha, evaluated after 13 days, read-out: herbicidal damage ECHCG (100=total damage to plant; 0=no damage to plant). A digest of the protocol:
as §2

Test [11] relates to Setaria faberi (SETFA). The description is as above. The following applies: 312 h, rate 1000 g/ha, evaluated after 13 days, read-out: herbicidal damage SETFA (100=total damage to plant; 0=no damage to plant). A digest of the protocol: as §2
Test [12] deals with Solanum nigrum (SOLNI). The test is described as above. As to conditions: 312 h, rate 1000 g/ha, evaluated after 13 days, read-out: herbicidal damage SOLNI (100=total damage to plant; 0=no damage to plant). A digest of the protocol: as §2

`Cc1ccc(-c2ccc3c(c2)OCO3)cc1C1=C(O)CC(CC2CCOCC2)CC1=O` (stereo not drawn) [Compound A-53]: the pest or weed control at 1000 g/ha (in test [1]; in [2]; in the test with Avena fatua (AVEFA) [3]; in [4]; with Setaria faberi (SETFA) [5]; in the test on Solanum nigrum (SOLNI) [6]) was 0% in each case. The pest or weed control at 1000 g/ha is 50% in test [7]; 0% in test [8]; 50% with Avena fatua (AVEFA) [9]; 70% in test [10]; 60% in the test on Setaria faberi (SETFA) [11]; 0% in the test with Solanum nigrum (SOLNI) [12].
As to `Cc1ccc(-c2ccc(Cl)cc2)cc1C1=C(O)CC(CC2OCC(CC3CCOCC3)O2)CC1=O` (stereo not drawn) [Compound A-60], the pest or weed control at 1000 g/ha in [1] worked out at 0%; in test [2], 0%; in the test on Avena fatua (AVEFA) [3], 0%; in test [4], 30%; with Setaria faberi (SETFA) [5], 30%; in the test with Solanum nigrum (SOLNI) [6], 0%. The pest or weed control at 1000 g/ha in [7] is 60%; in [8] it was 0%; with Avena fatua (AVEFA) [9], 10%; in test [10], 90%; with Setaria faberi (SETFA) [11], 90%; in the test on Solanum nigrum (SOLNI) [12], 0%.
Regarding `CCC1(CC)COC(CC2CC(=O)C(c3cc(-c4ccc(Cl)cc4)ccc3C)=C(O)C2)OC1` (stereo not drawn) [Compound A-57], the pest or weed control at 1000 g/ha came out at 40% in test [1]; 0% in [2]; 0% in the test with Avena fatua (AVEFA) [3]; 0% in [4]; 90% in the test on Setaria faberi (SETFA) [5]; 0% with Solanum nigrum (SOLNI) [6]. Further, the pest or weed control at 1000 g/ha in test [7] came to 70%; in test [8], 0%; with Avena fatua (AVEFA) [9] it was 20%; in [10], 90%; in the test with Setaria faberi (SETFA) [11], 90%; in the test on Solanum nigrum (SOLNI) [12], 0%.
Turning to `Cc1ccc(-c2ccc3c(c2)OCCO3)cc1C1=C(O)CC(CC2CCOCC2)CC1=O` (stereo not drawn) [Compound A-54], the pest or weed control at 1000 g/ha in [1] is 60%; in [2] it was 0%; with Avena fatua (AVEFA) [3] it was 10%; in test [4], 0%; in the test on Setaria faberi (SETFA) [5], 0%; in the test with Solanum nigrum (SOLNI) [6], 0%. Further, the pest or weed control at 1000 g/ha was found to be 0% in test [7]; 0% in [8]; 0% in the test on Avena fatua (AVEFA) [9]; 70% in [10]; 0% in the test with Setaria faberi (SETFA) [11]; 0% in the test with Solanum nigrum (SOLNI) [12].
With `Cc1cc(-c2ccc(C(F)(F)F)cc2)cc(C)c1C1=C(O)CC(CC2CCOCC2)CC1=O` (stereo not drawn) [Compound A-38], the pest or weed control at 1000 g/ha is 30% in test [1]; 0% in test [2]; 20% in the test with Avena fatua (AVEFA) [3]; 100% in test [4]; 100% with Setaria faberi (SETFA) [5]; 0% with Solanum nigrum (SOLNI) [6]. Moreover, the pest or weed control at 1000 g/ha in test [7] was 30%; in [8], 0%; with Avena fatua (AVEFA) [9], 40%; in [10], 90%; with Setaria faberi (SETFA) [11], 100%; with Solanum nigrum (SOLNI) [12] it was 20%.
With `Cc1ccc(-c2cc(C)c(C3=C(O)CC(CC4CCOCC4)CC3=O)c(C)c2)cc1` (stereo not drawn) [Compound A-36], the pest or weed control at 1000 g/ha in test [1] is 60%; in test [2] it was 0%; in the test on Avena fatua (AVEFA) [3], 40%; in test [4], 90%; in the test on Setaria faberi (SETFA) [5] it was 100%; in the test with Solanum nigrum (SOLNI) [6], 0%. Also, the pest or weed control at 1000 g/ha in [7] turned out to be 70%; in [8], 0%; with Avena fatua (AVEFA) [9], 70%; in test [10], 100%; with Setaria faberi (SETFA) [11], 100%; in the test on Solanum nigrum (SOLNI) [12] it was 50%.

For the origin of these results see patent US8735322B2, “Herbicides” (Syngenta Limited, priority 2008, dated 2014).
